US8802712B2, “Pyrazoloquinolines” (Merck Patent GmbH, priority 2010, dated 2014)
Where a name gives a salt, the structure may show the parent alone.

These compounds were tested against DNA-PK (Homo sapiens (Human), UniProt P78527) (assay: DNA-PK/Biochemical Assay (FlashPlate kinase assay)). Details: 5 μM ATP, 90 min, room temperature.
Experimental: The kinase assay was carried out in streptavidin-coated […] microtitre FlashPlates®. To this end, 1.5 μg of the DNA-PK/protein complex and 100 ng of biotinylated substrate, such as, for example, […] biotin-NH2 (“biotin-DNA-PK peptide”), in a total volume of 36.5 μl (34.25 mM HEPES/KOH, 7.85 mM Tris-HCl, 68.5 mM KCl, 5 μM ATP, 6.85 mM MgCl2, 0.5 mM EDTA, 0.14 mM EGTA, 0.69 mM DTT, pH 7.4), were incubated at room temperature for 90 min with 500 ng of DNA from calf thymus, 0.1 μCi of 33P-ATP and 1.8% of DMSO per well with or without the test compound. The reaction was stopped using 50 μl/well of 200 mM EDTA. After incubation for a further 30 min at room temperature, the liquid was removed. Each well was washed three times with 100 μl of 0.9% sodium chloride solution. A non-specific reaction (blank value) was determined using 10 μM of a proprietary kinase inhibitor. The radioactivity measurement was carried out by means of a TopCount. IC50 values were calculated in RS1. • Literature: Kashishian et al. (2003) Molecular Cancer Therapeutics 1257.

SMILES | IC50
COc1cc2ncc3c(c(-c4ccc(C#N)cc4)nn3C)c2cc1OCc1ccc(-n2cncn2)cc1 [Compound 31, 4-[7-Methoxy-3-methyl-8-(4-1,2,4-triazol-1-ylbenzyloxy)-3H-pyrazolo[3,4-c]quinolin-1-yl]benzonitrile] | > 500 nM
COc1cc2ncc3c(c(-c4ccc(C#N)cc4)nn3C)c2cc1OCc1cc(Br)cs1 [Compound 36, 4-[8-(4-Bromothiophen-2-ylmethoxy)-7-methoxy-3-methyl-3H-pyrazolo[3,4-c]-quinolin-1-yl]benzonitrile] | < 100 nM
COc1cc2ncc3c(c(-c4ccc(C#N)cc4)nn3C)c2cc1OCc1cc2ccccc2s1 [Compound 37, 4-[8-(Benzo[b]thiophen-2-ylmethoxy)-7-methoxy-3-methyl-3H-pyrazolo[3,4-c]-quinolin-1-yl]benzonitrile] | > 500 nM
COc1cc2ncc3c(c(-c4ccc(C#N)cc4)nn3C)c2cc1OCc1nccs1 [Compound 39, 4-[7-Methoxy-3-methyl-8-(thiazol-2-ylmethoxy)-3H-pyrazolo[3,4-c]quinolin-1-yl]-benzonitrile] | < 100 nM
COc1cc2ncc3c(c(-c4ccc(C#N)cc4)nn3C)c2cc1OCc1cscn1 [Compound 42, 4-[7-Methoxy-3-methyl-8-(thiazol-4-ylmethoxy)-3H-pyrazolo[3,4-c]quinolin-1-yl]-benzonitrile] | < 100 nM
COc1cc2ncc3c(c(-c4ccc(C#N)cc4)nn3C)c2cc1OCc1cncs1 [Compound 43, 4-[7-Methoxy-3-methyl-8-(thiazol-5-ylmethoxy)-3H-pyrazolo[3,4-c]quinolin-1-yl]-benzonitrile] | < 100 nM
COc1cc2ncc3c(c(-c4ccc(C#N)cc4)nn3C)c2cc1OCc1cccc(CN2CCN(C)CC2)c1 [Compound 44, 4-{7-Methoxy-3-methyl-8-[3-(4-methylpiperazin-1-yl-methyl)benzyloxy]-3H-pyrazolo[3,4-c]quinolin-1-yl}-benzonitrile] | > 500 nM
COc1cc2ncc3c(c(-c4ccc(C#N)cc4)nn3C)c2cc1OCc1cccc(-c2csc(C)n2)c1 [Compound 45, 4-{7-Methoxy-3-methyl-8-[3-(2-methylthiazol-4-yl)-benzyloxy]-3H-pyrazolo-[3,4-c]quinolin-1-yl}-benzonitrile] | 100 to 500 nM
COc1cc2c(cc1OCCN(C)C)ncc1c2c(-c2ccc(C#N)cc2)nn1C [Compound 46, 4-[7-(2-Dimethylamino-ethoxy)-8-methoxy-3-methyl-3H-pyrazolo[3,4-c]quinolin-1-yl]benzonitrile] | > 500 nM
CCn1nc(-c2ccc(C#N)cc2F)c2c3cc(OC)c(OC)cc3ncc21 [Compound 57, 4-(3-Ethyl-7,8-dimethoxy-3H-pyrazolo[3,4-c]quinolin-1-yl)-3-fluorobenzonitrile] | 100 to 500 nM
CCCCn1nc(-c2ccc(C#N)cc2)c2c3cc(OC)c(OC)cc3ncc21 [Compound 58, 4-(3-Butyl-7,8-dimethoxy-3H-pyrazolo[3,4-c]quinolin-1-yl)-benzonitrile] | > 500 nM
CCCn1nc(-c2ccc(C#N)cc2)c2c3cc(OC)c(OC)cc3ncc21 [Compound 59, 4-(7,8-Dimethoxy-3-propyl-3H-pyrazolo[3,4-c]quinolin-1-yl)-benzonitrile] | 100 to 500 nM
COc1cc2ncc3c(c(-c4ccc(C#N)cc4)nn3C(C)C)c2cc1OC [Compound 60, 4-(3-Isopropyl-7,8-dimethoxy-3H-pyrazolo[3,4-c]quinolin-1-yl)benzonitrile] | 100 to 500 nM
COc1cc2ncc3c(c(-c4ccc(C#N)cc4)nn3CC(C)C)c2cc1OC [Compound 61, 4-(3-lsobutyl-7,8-dimethoxy-3H-pyrazolo[3,4-c]quinolin-1-yl)benzonitrile] | > 500 nM
COc1cc2ncc3c(c(-c4ccc(C#N)cc4)nn3C3CC3)c2cc1OC [Compound 62, 4-(3-Cyclopropyl-7,8-dimethoxy-3H-pyrazolo[3,4-c]-quinolin-1-yl)benzonitrile] | 100 to 500 nM
C=CCn1nc(-c2ccc(C#N)cc2)c2c3cc(OC)c(OC)cc3ncc21 [Compound 63, 4-(3-Allyl-7,8-dimethoxy-3H-pyrazolo[3,4-c]quinolin-1-yl)-benzonitrile] | 100 to 500 nM
COc1cc2ncc3c(c(-c4ccc(C#N)cc4F)nn3Cc3cccnc3)c2cc1OC [Compound 64, 4-(7,8-Dimethoxy-3-pyridin-3-ylmethyl-3H-pyrazolo[3,4-c]-quinolin-1-yl)-3-fluoro-benzonitrile] | > 500 nM
COc1cc2ncc3c(c(-c4ccc(C#N)cc4)nn3C#N)c2cc1OC [Compound 65, 1-(4-Cyanophenyl)-7,8-dimethoxypyrazolo[3,4-c]-quinoline-3-carbonitrile] | 100 to 500 nM
COc1cc2ncc3c(c(-c4ccc(C#N)cc4)nn3CC#N)c2cc1OC [Compound 66, 4-(3-Cyanomethyl-7,8-dimethoxy-3H-pyrazolo[3,4-c]-quinolin-1-yl)benzonitrile] | < 100 nM
COc1cc2ncc3c(c(-c4ccc(C#N)cc4)nn3CC(=O)O)c2cc1OC [Compound 67, [1-(4-Cyanophenyl)-7,8-dimethoxypyrazolo[3,4-c]-quinolin-3-yl]acetic acid] | 100 to 500 nM

Continued, values first:

IC50 | SMILES
100 to 500 nM | COc1cc2ncc3c(c(-c4ccc(C#N)cc4)nn3C)c2cc1OCc1cccc(CN)c1 [Compound 32, 4-[8-(3-Aminomethyl-benzyloxy)-7-methoxy-3-methyl-3H-pyrazolo[3,4-c]-quinolin-1-yl]benzonitrile hydrochloride]
< 100 nM | COc1cc2ncc3c(c(-c4ccc(C#N)cc4)nn3C)c2cc1OCc1ccnc(N)c1 [Compound 33, 4-[8-(2-Aminopyridin-4-ylmethoxy)-7-methoxy-3-methyl-3H-pyrazolo[3,4-c]-quinolin-1-yl]benzonitrile]
< 100 nM | COc1cc2ncc3c(c(-c4ccc(C#N)cc4)nn3C)c2cc1OCc1cccs1 [Compound 34, 4-[7-Methoxy-3-methyl-8-(thiophen-2-ylmethoxy)-3H-pyrazolo[3,4-c]quinolin-1-yl]-benzonitrile]
< 100 nM | COc1cc2ncc3c(c(-c4ccc(C#N)cc4)nn3C)c2cc1OCc1ccsc1 [Compound 35, 4-[7-Methoxy-3-methyl-8-(thiophen-3-ylmethoxy)-3H-pyrazolo[3,4-c]quinolin-1-yl]-benzonitrile]
100 to 500 nM | COc1cc2ncc3c(c(-c4ccc(C#N)cc4)nn3C)c2cc1OCc1ccnc(C#N)c1 [Compound 38, 4-[1-(4-Cyanophenyl)-7-methoxy-3-methyl-3H-pyrazolo[3,4-c]quinolin-8-yl-oxymethyl]pyridine-2-nitrile]
100 to 500 nM | COc1cc2ncc3c(c(-c4ccc(C#N)cc4)nn3C)c2cc1OCc1cccc(N(C)C)c1 [Compound 41, 4-[8-(3-Dimethylamino-benzyloxy)-7-methoxy-3-methyl-3H-pyrazolo[3,4-c]-quinolin-1-yl]benzonitrile]
> 500 nM | COc1cc2c(cc1OCC(O)CO)ncc1c2c(-c2ccc(C#N)cc2)nn1C (stereo not shown) [Compound 47, 4-[7-(2,3-Dihydroxypropoxy)-8-methoxy-3-methyl-3H - pyrazolo[3,4-c]quinolin-1-yl]-benzonitrile]
100 to 500 nM | COc1cc2ncc3c(c(-c4ccc(C#N)cc4)nn3C)c2cc1OC(C(=O)NCCN(C)C)c1ccc(F)cc1 (stereo not shown) [Compound 49, 2-[1-(4-Cyano-phenyl)-7-methoxy-3-methyl-3H-pyrazolo-[3,4-c]quinolin-8-yl-oxy]-N-(2-dimethyl-aminoethyl)-2-(4-fluorophenyl)-acetamide]
> 500 nM | COc1cc2ncc3c(c(-c4ccc(C#N)cc4)nn3C)c2cc1OC(C(=O)NCCN1CCNCC1)c1ccc(F)cc1 (stereo not shown) [Compound 50, 2-[1-(4-Cyano-phenyl)-7-methoxy-3-methyl-3H-pyrazolo-[3,4-c]quinolin-8-yl-oxy]-2-(4-fluoro-phenyl)-N-(2 - piperazin-1-ylethyl)-acetamide]
100 to 500 nM | COc1cc2ncc3c(c(-c4ccc(C#N)cc4)nn3C)c2cc1OC(C(=O)NOCC#N)c1ccc(F)cc1 (stereo not shown) [Compound 51, N-Cyanomethoxy-2-[1-(4-cyanophenyl)-7-methoxy-3-methyl-3H-pyrazolo[3,4-c]-quinolin-8-yloxy]-2-(4-fluorophenyl)-acetamide]
100 to 500 nM | COc1cc2ncc3c(c(-c4ccc(C#N)cc4)nn3C)c2cc1OC(C(=O)NCCS(N)(=O)=O)c1ccc(F)cc1 (stereo not shown) [Compound 52, 2-[1-(4-Cyano-phenyl)-7-methoxy-3-methyl-3H-pyrazolo-[3,4-c]quinolin-8-yl-oxy]-2-(4-fluoro-phenyl)-N-(2-sulfamoylethyl)-acetamide]
< 100 nM | COc1cc2ncc3c(c(-c4ccc(C#N)cc4)nn3C)c2cc1OC(C(=O)NO)c1ccc(F)cc1 (stereo not shown) [Compound 53, 2-[1-(4-Cyano-phenyl)-7-methoxy-3-methyl-3H-pyrazolo-[3,4-c]quinolin-8-yloxy]-2-(4-fluoro-phenyl)-N-hydroxy-acetamide]
< 100 nM | COc1cc2ncc3c(c(-c4ccc(C#N)cc4)nn3C)c2cc1OC(C(=O)NC(=N)N)c1ccc(F)cc1 (stereo not shown) [Compound 54, N-[2-[1-(4-Cyano-phenyl)-7-methoxy-3-methyl-3H-pyrazolo-[3,4-c]quinolin-8-yl-oxy]-2-(4-fluoro-phenyl)acetyl]-guanidine]
< 100 nM | COCCNC(=O)C(Oc1cc2c(cc1OC)ncc1c2c(-c2ccc(C#N)cc2)nn1C)c1ccc(F)cc1 (stereo not shown) [Compound 55, 2-[1-(4-Cyano-phenyl)-7-methoxy-3-methyl-3H-pyrazolo-[3,4-c]quinolin-8-yloxy]-2-(4-fluoro-phenyl)-N-(2-methoxyethyl)-acetamide]
